Results published in PubChem BioAssay (NCI).
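Results reflect a 48-hour exposure of cells in 96-well plates to compound at five concentrations. TGI is the concentration that stops growth completely.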

Tests used:
Test in all cases: NCI anticancer screen, dose series, 48 h
786-0 renal = system: 786-0 renal
SK-MEL-28 melanoma = system: SK-MEL-28 melanoma
TK-10 renal = system: TK-10 renal
UACC-62 melanoma = system: UACC-62 melanoma
HCT-15 colon = system: HCT-15 colon
HCC-2998 colon = system: HCC-2998 colon
SK-MEL-5 melanoma = system: SK-MEL-5 melanoma
HL-60(TB) leukemia = system: HL-60(TB) leukemia
M14 melanoma = system: M14 melanoma
U251 CNS = system: U251 CNS
DU-145 prostate = system: DU-145 prostate
HOP-92 NSCLC = system: HOP-92 NSCLC
SNB-19 CNS = system: SNB-19 CNS
NCI-H460 lung = system: NCI-H460 lung
COLO 205 colon = system: COLO 205 colon
UO-31 renal = system: UO-31 renal
T-47D breast = system: T-47D breast
MDA-MB-231 breast = system: MDA-MB-231 breast
KM12 colon = system: KM12 colon
OVCAR-3 ovarian = system: OVCAR-3 ovarian
HOP-62 NSCLC = system: HOP-62 NSCLC
MDA-N = system: MDA-N
HS 578T breast = system: HS 578T breast
SNB-75 CNS = system: SNB-75 CNS
UACC-257 melanoma = system: UACC-257 melanoma
LOX IMVI melanoma = system: LOX IMVI melanoma
OVCAR-8 ovarian = system: OVCAR-8 ovarian
RXF 393 renal = system: RXF 393 renal
HCT-116 colon = system: HCT-116 colon
SF-268 CNS = system: SF-268 CNS
NCI/ADR-RES ovarian = system: NCI/ADR-RES ovarian
PC-3 prostate = system: PC-3 prostate
NCI-H226 lung = system: NCI-H226 lung
SK-MEL-2 melanoma = system: SK-MEL-2 melanoma
EKVX NSCLC = system: EKVX NSCLC
SF-295 CNS = system: SF-295 CNS
A549 NSCLC = system: A549 NSCLC
MCF7 breast = system: MCF7 breast
BT-549 breast = system: BT-549 breast
CAKI-1 renal = system: CAKI-1 renal
HT29 colon = system: HT29 colon
CCRF-CEM leukemia = system: CCRF-CEM leukemia
SR leukemia = system: SR leukemia
MDA-MB-435 = system: MDA-MB-435
IGROV1 ovarian = system: IGROV1 ovarian
MOLT-4 leukemia = system: MOLT-4 leukemia
RPMI-8226 leukemia = system: RPMI-8226 leukemia
SK-OV-3 ovarian = system: SK-OV-3 ovarian
SN12C renal = system: SN12C renal
K-562 leukemia = system: K-562 leukemia
ACHN renal = system: ACHN renal
NCI-H23 lung = system: NCI-H23 lung
SF-539 CNS = system: SF-539 CNS
SW-620 colon = system: SW-620 colon
NCI-H522 lung = system: NCI-H522 lung
OVCAR-5 ovarian = system: OVCAR-5 ovarian
A498 renal = system: A498 renal
MALME-3M melanoma = system: MALME-3M melanoma
OVCAR-4 ovarian = system: OVCAR-4 ovarian

Structure (SMILES): Cc1cc(-c2nc3cccc(O)c3s2)ccc1N
- TGI (786-0 renal): > 100 µM
- TGI (SK-MEL-28 melanoma): > 100 µM
- TGI (TK-10 renal): > 100 µM
- TGI (UACC-62 melanoma): 33.1 µM
- TGI (HCT-15 colon): > 100 µM
- TGI (HCC-2998 colon): > 100 µM
- TGI (SK-MEL-5 melanoma): 48.8 µM
- TGI (HL-60(TB) leukemia): 47.2 µM
- TGI (M14 melanoma): 37.7 µM
- TGI (U251 CNS): > 100 µM
- TGI (DU-145 prostate): > 100 µM
- TGI (HOP-92 NSCLC): > 100 µM
- TGI (SNB-19 CNS): 7.43 µM
- TGI (NCI-H460 lung): > 100 µM
- TGI (COLO 205 colon): 58.1 µM
- TGI (UO-31 renal): 25.4 µM
- TGI (T-47D breast): > 100 µM
- TGI (MDA-MB-231 breast): > 100 µM
- TGI (KM12 colon): 36.7 µM
- TGI (OVCAR-3 ovarian): > 100 µM
- TGI (HOP-62 NSCLC): > 100 µM
- TGI (MDA-N): > 100 µM
- TGI (HS 578T breast): 46.4 µM
- TGI (SNB-75 CNS): > 100 µM
- TGI (UACC-257 melanoma): > 100 µM
- TGI (LOX IMVI melanoma): > 100 µM
- TGI (OVCAR-8 ovarian): 99 µM
- TGI (RXF 393 renal): > 100 µM
- TGI (HCT-116 colon): > 100 µM
- TGI (SF-268 CNS): > 100 µM
- TGI (NCI/ADR-RES ovarian): 55.9 µM
- TGI (PC-3 prostate): 98.5 µM
- TGI (NCI-H226 lung): > 100 µM
- TGI (SK-MEL-2 melanoma): > 100 µM
- TGI (EKVX NSCLC): > 100 µM
- TGI (SF-295 CNS): > 100 µM
- TGI (A549 NSCLC): 41.4 µM
- TGI (MCF7 breast): 34.1 µM
- TGI (BT-549 breast): 54.7 µM
- TGI (CAKI-1 renal): 71.4 µM
- TGI (HT29 colon): > 100 µM
- TGI (CCRF-CEM leukemia): 65.2 µM
- TGI (SR leukemia): > 100 µM
- TGI (MDA-MB-435): 41.9 µM
- TGI (IGROV1 ovarian): > 100 µM
- TGI (MOLT-4 leukemia): 78.4 µM
- TGI (RPMI-8226 leukemia): > 100 µM
- TGI (SK-OV-3 ovarian): > 100 µM
- TGI (SN12C renal): > 100 µM
- TGI (K-562 leukemia): > 100 µM
- TGI (ACHN renal): 49.9 µM
- TGI (NCI-H23 lung): 93 µM
- TGI (SF-539 CNS): > 100 µM
- TGI (SW-620 colon): > 100 µM

Structure (SMILES): CC(C)OC(=S)Nc1ccc(Cl)c(/C=N/OC(C)(C)C)c1
- TGI (786-0 renal): 34.3 µM
- TGI (SK-MEL-28 melanoma): 44.8 µM
- TGI (TK-10 renal): 17.1 µM
- TGI (UACC-62 melanoma): 30.9 µM
- TGI (HCT-15 colon): 32.4 µM
- TGI (HCC-2998 colon): 41.4 µM
- TGI (SK-MEL-5 melanoma): 31.8 µM
- TGI (HL-60(TB) leukemia): 37.8 µM
- TGI (M14 melanoma): 39.9 µM
- TGI (U251 CNS): 31.7 µM
- TGI (DU-145 prostate): 17.6 µM
- TGI (HOP-92 NSCLC): 25.5 µM
- TGI (SNB-19 CNS): 44.2 µM
- TGI (NCI-H460 lung): 33.1 µM
- TGI (COLO 205 colon): 32.3 µM
- TGI (NCI-H522 lung): 30.8 µM
- TGI (UO-31 renal): 27.2 µM
- TGI (T-47D breast): 38.7 µM
- TGI (MDA-MB-231 breast): 31.5 µM
- TGI (KM12 colon): 17.6 µM
- TGI (OVCAR-3 ovarian): 33.6 µM
- TGI (HOP-62 NSCLC): 41.4 µM
- TGI (OVCAR-5 ovarian): 30.8 µM
- TGI (MDA-N): 42 µM
- TGI (HS 578T breast): 38.6 µM
- TGI (SNB-75 CNS): 54.7 µM
- TGI (A498 renal): 28.2 µM
- TGI (UACC-257 melanoma): 37.4 µM
- TGI (LOX IMVI melanoma): 34.3 µM
- TGI (OVCAR-8 ovarian): 17 µM
- TGI (RXF 393 renal): 30.9 µM
- TGI (HCT-116 colon): 29.9 µM
- TGI (SF-268 CNS): 40.4 µM
- TGI (NCI/ADR-RES ovarian): 16.8 µM
- TGI (PC-3 prostate): 38.1 µM
- TGI (NCI-H226 lung): 34.2 µM
- TGI (SK-MEL-2 melanoma): 37.5 µM
- TGI (EKVX NSCLC): 36.3 µM
- TGI (SF-295 CNS): 18.6 µM
- TGI (A549 NSCLC): 40 µM
- TGI (MALME-3M melanoma): 34.2 µM
- TGI (MCF7 breast): 51 µM
- TGI (OVCAR-4 ovarian): 35.3 µM
- TGI (BT-549 breast): 34.1 µM
- TGI (CAKI-1 renal): 32.8 µM
- TGI (HT29 colon): 28.6 µM
- TGI (CCRF-CEM leukemia): 36.8 µM
- TGI (SR leukemia): 39.3 µM
- TGI (MDA-MB-435): 32.3 µM
- TGI (IGROV1 ovarian): 36.6 µM
- TGI (MOLT-4 leukemia): 30.8 µM
- TGI (RPMI-8226 leukemia): 51.3 µM
- TGI (SK-OV-3 ovarian): 41.6 µM
- TGI (SN12C renal): 31.6 µM
- TGI (K-562 leukemia): 43 µM
- TGI (ACHN renal): 28.7 µM
- TGI (NCI-H23 lung): 39.4 µM
- TGI (SF-539 CNS): 31.7 µM
- TGI (SW-620 colon): 32 µM
